Results: ChEMBL document CHEMBL5728357, “Small molecule inhibitors of lactate dehydrogenase and methods of use thereof” (2021)
Values joined by “and” are separate entries in the source; they are usually repeats but may differ in a detail not shown here. Identical values can stand only once.

Experiment: Biochemical Assay: Test compounds were placed in a Greiner Bio-One (Monroe, N.C.) 1536-well black solid bottom assay plate. 200 millimolar (mM) Tris HCl, pH 7.4, 100 micromolar […] EDTA and 0.01% TWEEN-20™, final concentration, was used as the assay buffer. The LDHA reagent was 2 nanomolar (nM) Human LDHA (Meridian Life Science, Inc., Memphis, Tenn.), final concentration, in assay buffer.

Row | SMILES | IC50
1 | COc1cccc(-c2cccc(-c3nn(-c4nc(C(=O)O)cs4)c(C4CC4)c3Cc3ccc([SH+](N)[O-])c(F)c3)c2)c1 (stereo not given) | < 0.1 µM
2 | CC(C)=Cc1cc(-c2nn(-c3nc(C(=O)O)cs3)c(CC3CC3)c2Cc2ccc([S+](N)(=O)[O-])c(F)c2)ccc1F | < 0.1 µM
3 | N[S+](=O)([O-])c1ccc(Cc2c(-c3ccc(F)c(/C=C/C4CC4)c3)nn(-c3nc(C(=O)O)cs3)c2CC2CC2)cc1F | < 0.1 µM
4 | Cc1ccc(-c2cc(-c3nn(-c4nc(C(=O)O)cs4)c(CC4CC4)c3Cc3ccc([SH+](N)[O-])c(F)c3)ccc2F)cc1 (stereo not given) | < 0.1 µM
5 | C/C=C/c1cc(-c2nn(-c3nc(C(=O)O)cs3)c(CC3CC3)c2Cc2ccc([S+](N)(=O)[O-])c(F)c2)ccc1F | < 0.1 µM
6 | NS(=O)(=O)c1ccc(Cc2c(-c3cccc(-c4ccccc4)c3)nn(-c3nc(C(=O)O)cs3)c2CCC2CC2)cc1 | < 0.1 µM
7 | CC#Cc1cccc(-c2nn(-c3ncc(C(=O)OCC)s3)c(CC3CC3)c2Cc2ccc([SH+](N)[O-])c(F)c2)c1 (stereo not given) | in the range around 29 µM
8 | Cc1ccc(-c2cccc(-c3nn(-c4nc(C(=O)O)cs4)c(CC4CC4)c3Cc3ccc([SH+](N)[O-])cc3F)c2)cc1 (stereo not given) | < 0.1 µM
9 | C=C(C)c1cc(-c2nn(-c3nc(C(=O)O)cs3)c(CC3CC3)c2Cc2ccc([S+](N)(=O)[O-])c(F)c2)ccc1F | < 0.1 µM
10 | N[S+](=O)([O-])c1ccc(Cc2c(-c3ccc(F)c(C(F)(F)F)c3)nn(-c3nc(C(=O)O)cs3)c2CC2CC2)cc1F | < 0.1 µM

Further lines, results first:

Row | IC50 | SMILES
11 | < 0.1 µM | N[S+](=O)([O-])c1ccc(Cc2c(-c3ccc(F)c(/C=C/C4CCCC4)c3)nn(-c3nc(C(=O)O)cs3)c2CC2CC2)cc1F
12 | < 0.1 µM | N[S+](=O)([O-])c1ccc(Cc2c(-c3ccc(F)c(-c4ccc(F)cc4)c3)nn(-c3nc(C(=O)O)cs3)c2CC2CC2)c(F)c1
13 | in the range around 29 µM | NS(=O)(=O)c1ccc(Cc2c(CC3CC3)nn(-c3nc(OC=O)cs3)c2-c2cc(F)cc(-c3cccc(F)c3)c2)cc1
14 | > 57 µM | CCOC(=O)c1csc(-n2nc(-c3ccc(F)c(C#CC4CCCC4)c3)c(Cc3cccc([S+](N)(=O)[O-])c3)c2CC2CC2)n1
15 | in the range around 29 µM and > 57 µM | CCOC(=O)c1csc(-n2nc(-c3cccc(-c4ccc(C)cc4)c3)c(Cc3ccc([SH+](=O)[O-])c(F)c3)c2CC2CC2)n1
